US10947272B2, “BACE1 inhibitor peptides” (HOFFMANN-LA ROCHE INC., priority 2015, dated 2021)
Structures can show the parent of a compound that is named as a salt. Numbered stars: 1 amine (or outer) side, 2 acyl side, 3 side chain; on linkers, the order of the positions; unused ones are H or OH. Square brackets hold non-standard residues; d marks the D form. Ends that are not written are not given here. Peptide text beside a SMILES is read from it. MetSta(3S,4S) = CSCC[C@H](N[*:1])[C@@H](O)CC(=O)[*:2]; MetSta = statine analogue named MetSta in the name; Sta = CC(C)C[C@H](N)[C@@H](O)CC(=O)O; PEG4 = NCCOCCOCCOCCOCCC(=O)O

What follows are molecules tested against BACE1 (Asp2, β-secretase, Memapsin-2) in HEK293 cells stably expressing human APP695 (UniProt P56817 46-501, limits assumed) (assay: cell-based or functional assay). Conditions: not given.
Sequence of BACE1 (Asp2, β-secretase, Memapsin-2) in HEK293 cells stably expressing human APP695 (P56817 46-501 limits assumed): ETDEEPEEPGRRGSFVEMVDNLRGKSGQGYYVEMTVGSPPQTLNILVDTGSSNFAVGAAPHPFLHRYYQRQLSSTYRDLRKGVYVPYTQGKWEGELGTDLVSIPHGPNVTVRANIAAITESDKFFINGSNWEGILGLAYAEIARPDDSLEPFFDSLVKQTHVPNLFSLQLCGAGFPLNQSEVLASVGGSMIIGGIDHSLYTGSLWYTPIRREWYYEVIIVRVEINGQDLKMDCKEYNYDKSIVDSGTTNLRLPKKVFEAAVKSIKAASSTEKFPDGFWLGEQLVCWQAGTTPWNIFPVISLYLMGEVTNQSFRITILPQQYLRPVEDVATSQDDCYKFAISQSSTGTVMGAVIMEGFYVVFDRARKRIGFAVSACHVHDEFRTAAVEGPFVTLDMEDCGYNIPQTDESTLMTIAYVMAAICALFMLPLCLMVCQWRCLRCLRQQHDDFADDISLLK

Molecule	IC 50, cellular Aβ-lowering assay (Aβ40 in supernatant of HEK293 cells expressing human APP695)
YPYFIPL[PEG4]EVN[MetSta(3S,4S)]VAE[dF]-NH2 (also: TFA salt) [Tyr-Pro-Tyr-Phe-Ile-Pro-Leu-PEG(4)-Glu-Val-Asn-MetSta-Val-Ala-Glu-DPhe-NH2 × TFA]	0.43 µM
YPYFIPLGGGEVN[MetSta]VAEP-NH2 (also: TFA salt) [Tyr-Pro-Tyr-Phe-Ile-Pro-Leu-Gly-Gly-Gly-Glu-Val-Asn-MetSta-Val-Ala-Glu-Pro-NH2 × TFA]	1.34 µM
YPYFIP[dK]G[dK]GEVN[Sta]VAE[dP]-NH2 (also: TFA salt (3 TFA)) [Tyr-Pro-Tyr-Phe-Ile-Pro-DLys-Gly-DLys-Gly-Glu-Val-Asn-Sta-Val-Ala-Glu-DPro-NH2 × 3TFA]	0.019 µM
YPKFIPLG[dK]GEVN[Sta]VAE[dP]-NH2 (also: TFA salt (3 TFA)) [Tyr-Pro-Lys-Phe-Ile-Pro-Leu-Gly-DLys-Gly-Glu-Val-Asn-Sta-Val-Ala-Glu-DPro-NH2 × 3TFA]	0.28 µM
YPYFIPL[PEG4]EVN[MetSta(3S,4S)]VAEP-NH2 (also: TFA salt) [Tyr-Pro-Tyr-Phe-Ile-Pro-Leu-PEG(4)-Glu-Val-Asn-MetSta-Val-Ala-Glu-Pro-NH2 × TFA]	0.017 µM

Each molecule was assayed against T1, BACE1 (Homo sapiens, UniProt P56817) (assay: Cellular Aβ-lowering assay (Aβ40 ELISA of culture supernatant)). Conditions: IC 50, dual-site BACE1 inhibitors; HEK293 cells stably transfected with human APP wt (APP695); 18-20 hrs incubation; Aβ40 in supernatant.
T1 construct: Human HEK293 cells which are stably transfected with a vector expressing a cDNA of the human APP wt gene (APP695); endogenous in cells; host or cells: HEK293 (human), stably transfected with human APP695 wt cDNA
T1 sequence (P56817 46-501): as the sequence (P56817 46-501 limits assumed) above
Assay type: cell-based
Description: The compounds were investigated in accordance with the test given hereinafter. Cellular Aβ-Lowering Assay: Human HEK293 cells which are stably transfected with a vector expressing a cDNA of the human APP wt gene (APP695) were used to assess the potency of the compounds in a cellular assay. The cells were seeded in 96-well microtiter plates in cell culture medium (Iscove, plus 10% (v/v) fetal bovine serum, glutamine, penicillin/streptomycin) to about 80% confluence and the compounds were added at a 10× concentration in 1/10 volume of medium without FCS containing 8% DMSO (final concentration of DMSO was kept at 0.8% v/v). After 18-20 hrs incubation at 37° C. and 5% CO2 in a humidified incubator the culture supernatant was harvested for the determination of Aβ40 concentrations. 96 well ELISA plates (e.g., Nunc MaxiSorb) were coated with monoclonal antibody which specifically recognize the C-terminal end of Aβ40 (Brockhaus et al., NeuroReport 9, 1481-1486; 1998). After blocking of non-specific binding sites with e.g. 1% BSA and washing, the culture supernatants were added in suitable dilutions together with a horseradish peroxidase-coupled Aβ detection antibody (e.g., antibody 4G8, Senetek, Maryland Heights, Mo.) and incubated for 5 to 7 hrs. Subsequently the wells of the microtiter plate were washed extensively with Tris-buffered saline containing 0.05% Tween 20 and the assay was developed with tetramethylbenzidine/H2O2 in citric acid buffer. After stopping the reaction with one volume 1 N H2SO4 the reaction was measured in an ELISA reader at 450 nm wavelength. The concentrations of Aβ in the culture supernatants were calculated from a standard curve obtained with known amounts of pure Aβ peptide.

Molecule	IC50
CC[C@H](C)[C@H](NC(=O)[C@@H](CCCCN)NC(=O)[C@H](Cc1ccc(O)cc1)NC(=O)[C@@H]1CCCN1C(=O)[C@@H](N)Cc1ccc(O)cc1)C(=O)N1CCC[C@H]1C(=O)N[C@@H](CC(C)C)C(=O)NCC(=O)N[C@H](CCCCN)C(=O)NCC(=O)N[C@@H](CCC(=O)O)C(=O)N[C@H](C(=O)N[C@@H](CC(N)=O)C(=O)N[C@@H](CC(C)C)[C@@H](O)CC(=O)N[C@H](C(=O)N[C@@H](C)C(=O)N[C@@H](CCC(=O)O)C(=O)N1CCC[C@@H]1C(N)=O)C(C)C)C(C)C [Example 33, H-Tyr-Pro-Tyr-DLys-Ile-Pro-Leu-Gly-DLys-Gly-Glu-Val-Asn-Sta-Val-Ala-Glu-DPro-NH2] (H-YPY[dK]IPLG[dK]GEVN[Sta]VAE[dP]-NH2)	34.8 µM

Same assay, conditions: dual-site BACE1 inhibitors; HEK293 cells stably transfected with human APP wt (APP695); 18-20 hrs incubation; Aβ40 in supernatant; read-out: IC 50

Molecule	IC50
CC(C)C[C@H](NC(=O)[C@@H]1CCCN1C(=O)[C@@H](CCCCN)NC(=O)[C@H](Cc1ccccc1)NC(=O)[C@H](Cc1ccc(O)cc1)NC(=O)[C@@H]1CCCN1C(=O)[C@@H](N)Cc1ccc(O)cc1)C(=O)NCC(=O)N[C@H](CCCCN)C(=O)NCC(=O)N[C@@H](CCC(=O)O)C(=O)N[C@H](C(=O)N[C@@H](CC(N)=O)C(=O)N[C@@H](CC(C)C)[C@@H](O)CC(=O)N[C@H](C(=O)N[C@@H](C)C(=O)N[C@@H](CCC(=O)O)C(=O)N1CCC[C@@H]1C(N)=O)C(C)C)C(C)C [Example 13, Tyr-Pro-Tyr-Phe-DLys-Pro-Leu-Gly-DLys-Gly-Glu-Val-Asn-Sta-Val-Ala-Glu-DPro-NH2 × 3TFA] (H-YPYF[dK]PLG[dK]GEVN[Sta]VAE[dP]-NH2)	> 40 µM
CC[C@H](C)[C@H](NC(=O)[C@H](Cc1ccccc1)NC(=O)[C@H](Cc1ccc(O)cc1)NC(=O)[C@@H]1CCCN1C(=O)[C@@H](N)Cc1ccc(O)cc1)C(=O)N1CCC[C@H]1C(=O)N[C@H](CCCCN)C(=O)NCC(=O)N[C@H](CCCCN)C(=O)NCC(=O)N[C@@H](CCC(=O)O)C(=O)N[C@H](C(=O)N[C@@H](CC(N)=O)C(=O)N[C@@H](CCSC)[C@@H](O)CC(=O)N[C@H](C(=O)N[C@@H](C)C(=O)N[C@@H](CCC(=O)O)C(=O)N1CCC[C@H]1C(N)=O)C(C)C)C(C)C [Example 18, Tyr-Pro-Tyr-Phe-Ile-Pro-DLys-Gly-DLys-Gly-Glu-Val-Asn-MetSta-Val-Ala-Glu-Pro-NH2 × 3TFA]	0.015 µM
CC[C@H](C)[C@H](NC(=O)[C@H](Cc1ccccc1)NC(=O)[C@H](CCCNC(=N)N)NC(=O)[C@H](C)NC(=O)CN)C(=O)N1CCC[C@H]1C(=O)N[C@@H](C)C(=O)NCC(=O)N[C@H](CCCCN)C(=O)NCC(=O)N[C@@H](CCC(=O)O)C(=O)N[C@H](C(=O)N[C@@H](CC(N)=O)C(=O)N[C@@H](CC(C)C)[C@@H](O)CC(=O)N[C@H](C(=O)N[C@@H](C)C(=O)N[C@@H](CCC(=O)O)C(=O)N1CCC[C@@H]1C(N)=O)C(C)C)C(C)C [Example 16, Gly-Ala-Arg-Phe-Ile-Pro-Ala-Gly-DLys-Gly-Glu-Val-Asn-Sta-Val-Ala-Glu-DPro-NH2 × 3TFA] (H-GARFIPAG[dK]GEVN[Sta]VAE[dP]-NH2; N-terminus assumed)	0.42 µM
CC[C@H](C)[C@H](NC(=O)[C@H](Cc1ccccc1)NC(=O)[C@H](Cc1ccc(O)cc1)NC(=O)[C@@H]1CCCN1C(=O)[C@@H](N)Cc1ccc(O)cc1)C(=O)N[C@H](CCCCN)C(=O)N[C@@H](CC(C)C)C(=O)NCC(=O)N[C@H](CCCCN)C(=O)NCC(=O)N[C@@H](CCC(=O)O)C(=O)N[C@H](C(=O)N[C@@H](CC(N)=O)C(=O)N[C@@H](CC(C)C)[C@@H](O)CC(=O)N[C@H](C(=O)N[C@@H](C)C(=O)N[C@@H](CCC(=O)O)C(=O)N1CCC[C@@H]1C(N)=O)C(C)C)C(C)C [Example 12, Tyr-Pro-Tyr-Phe-Ile-DLys-Leu-Gly-DLys-Gly-Glu-Val-Asn-Sta-Val-Ala-Glu-DPro-NH2 × 3TFA] (H-YPYFI[dK]LG[dK]GEVN[Sta]VAE[dP]-NH2)	> 40 µM
CC[C@H](C)[C@H](NC(=O)[C@H](Cc1ccccc1)NC(=O)[C@H](Cc1ccc(O)cc1)NC(=O)[C@@H](CCCCN)NC(=O)[C@@H](N)Cc1ccc(O)cc1)C(=O)N1CCC[C@H]1C(=O)N[C@@H](CC(C)C)C(=O)NCC(=O)N[C@H](CCCCN)C(=O)NCC(=O)N[C@@H](CCC(=O)O)C(=O)N[C@H](C(=O)N[C@@H](CC(N)=O)C(=O)N[C@@H](CC(C)C)[C@@H](O)CC(=O)N[C@H](C(=O)N[C@@H](C)C(=O)N[C@@H](CCC(=O)O)C(=O)N1CCC[C@@H]1C(N)=O)C(C)C)C(C)C [Example 31, H-Tyr-DLys-Tyr-Phe-Ile-Pro-Leu-Gly-DLys-Gly-Glu-Val-Asn-Sta-Val-Ala-Glu-DPro-NH2] (H-Y[dK]YFIPLG[dK]GEVN[Sta]VAE[dP]-NH2)	> 40 µM
CC(C)C[C@H](NC(=O)[C@@H](CCCCN)NC(=O)[C@H](Cc1ccccc1)NC(=O)[C@H](Cc1ccc(O)cc1)NC(=O)[C@@H]1CCCN1C(=O)[C@@H](N)Cc1ccc(O)cc1)C(=O)NCCOCCOCCOCCOCCC(=O)N[C@@H](CCC(=O)O)C(=O)N[C@H](C(=O)N[C@@H](CC(N)=O)C(=O)N[C@@H](CC(C)C)[C@@H](O)CC(=O)N[C@H](C(=O)N[C@@H](C)C(=O)N[C@@H](CCC(=O)O)C(=O)N1CCC[C@@H]1C(N)=O)C(C)C)C(C)C [Example 23, H-Tyr-Pro-Tyr-Phe-DLys-Leu-PEG(4)-Glu-Val-Asn-Sta-Val-Ala-Glu-DPro-NH2 × 3TFA] (H-YPYF[dK]L[PEG4]EVN[Sta]VAE[dP]-NH2)	> 40 µM
CC[C@H](C)[C@H](NC(=O)[C@H](Cc1ccccc1)NC(=O)[C@H](Cc1ccc(O)cc1)NC(=O)[C@@H]1CCCN1C(=O)[C@@H](N)Cc1ccc(O)cc1)C(=O)N1CCC[C@H]1C(=O)N[C@@H](CC(C)C)C(=O)NCC(=O)NCC(=O)NCC(=O)N[C@@H](CCC(=O)O)C(=O)N[C@H](C(=O)N[C@@H](CC(N)=O)C(=O)N[C@@H](CC(C)C)[C@@H](O)CC(=O)N[C@H](C(=O)N[C@@H](C)C(=O)N[C@@H](CCC(=O)O)C(=O)N1CCC[C@@H]1C(N)=O)C(C)C)C(C)C [Example 2, Tyr-Pro-Tyr-Phe-Ile-Pro-Leu-Gly-Gly-Gly-Glu-Val-Asn-Sta-Val-Ala-Glu-DPro-NH2 × TFA]	0.42 µM

Same assay, conditions: exosite motifs alone; HEK293 cells stably transfected with human APP wt (APP695); Aβ40 in supernatant; read-out: IC 50

Molecule	IC50
CC[C@H](C)[C@H](NC(=O)[C@H](Cc1ccccc1)NC(=O)[C@H](CCCNC(=N)N)NC(=O)[C@H](C)NC(=O)CNC(=O)[C@@H](NC(=O)[C@H](CO)NC(C)=O)[C@@H](C)O)C(=O)N1CCC[C@H]1C(=O)N[C@@H](C)C(=O)N[C@@H](CC(N)=O)C(N)=O [Example E3, Ac-Ser-Thr-Gly-Ala-Arg-Phe-Ile-Pro-Ala-Asn-NH2] (Ac-STGARFIPAN-NH2)	> 40 µM
CC(=O)N[C@@H](CCC(N)=O)C(=O)N[C@@H](CCC(N)=O)C(=O)N[C@@H](Cc1ccc(O)cc1)C(=O)N1CCC[C@H]1C(=O)N[C@@H](Cc1ccc(O)cc1)C(=O)N[C@@H](Cc1ccccc1)C(=O)N[C@@H](CCCCN)C(=O)N1CCC[C@H]1C(=O)N[C@@H](C)C(=O)N[C@@H](CC(N)=O)C(N)=O [Example E1, Ae-Gln-Gln-Tyr-Pro-Tyr-Phe-Lys-Pro-Ala-Asn-NH2] (Ac-QQYPYFKPAN-NH2)	> 40 µM
CC[C@H](C)[C@H](NC(=O)[C@H](Cc1ccccc1)NC(=O)[C@H](CCCCN)NC(=O)[C@@H]1CCCN1C(=O)[C@H](Cc1ccc(O)cc1)NC(=O)[C@H](CO)NC(=O)CNC(C)=O)C(=O)N[C@@H](CC(=O)O)C(=O)N[C@@H](C)C(=O)N[C@@H](CC(N)=O)C(N)=O [Example E6, Ac-Gly-Ser-Tyr-Pro-Lys-Phe-Ile-Asp-Ala-Asn-NH2] (Ac-GSYPKFIDAN-NH2)	> 40 µM
